Experimental data taken from PubChem BioAssay AID248 (DTP/NCI, 2004).
Values joined by “and” are separate entries in the source; they are usually repeats but may differ in a detail not shown here. Equal entries are not always repeated. Toxic doses and inconclusive results are not listed. No stated cut-off is given here; in the data, active means T/C of 150% or more; inactive means T/C below 125%.

System: L1210 leukemia ip in BDF1 mice, survival T/C
Experiment: NCI In Vivo Anticancer Drug Screen. Data for tumor model L1210 Leukemia (intraperitoneal) in B6D2F1 (BDF1) mice
Details: endpoint: mean survival time, higher = longer survival
Outline: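 Value reflects the ratio of survival in compound-treated mice to survival in vehicle-treated controls, with both groups carrying the same transplanted tumor.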

[1] = dose: 100.0 mg/kg/injection, schedule: Q01DX009 (ip), vehicle: Klucel (hydroxypropylcellulose) (HPC)
[2] = dose: 200.0 mg/kg/injection, schedule: Q01DX009 (ip), vehicle: Klucel (hydroxypropylcellulose) (HPC)
[3] = dose: 75.0 mg/kg/injection, schedule: Q01DX001 (ip), vehicle: other
[4] = dose: 100.0 mg/kg/injection, schedule: Q04DX002 (ip), vehicle: saline
[5] = dose: 200.0 mg/kg/injection, schedule: Q04DX002 (ip), vehicle: saline
[6] = dose: 400.0 mg/kg/injection, schedule: Q04DX002 (ip), vehicle: saline
[7] = dose: 100.0 mg/kg/injection, schedule: Q01DX009 (ip), vehicle: saline
[8] = dose: 100.0 mg/kg/injection, schedule: Q04DX003 (ip), vehicle: saline
[9] = dose: 100.0 mg/kg/injection, schedule: Q01DX001 (ip), vehicle: carboxymethylcellulose (CMC)
[10] = dose: 200.0 mg/kg/injection, schedule: Q01DX001 (ip), vehicle: carboxymethylcellulose (CMC)
[11] = dose: 50.0 mg/kg/injection, schedule: Q01DX009 (ip), vehicle: saline with Tween-80
[12] = dose: 100.0 mg/kg/injection, schedule: Q01DX009 (ip), vehicle: saline with Tween-80
[13] = dose: 200.0 mg/kg/injection, schedule: Q01DX009 (ip), vehicle: saline with Tween-80
[14] = dose: 100.0 mg/kg/injection, schedule: Q04DX003 (ip), vehicle: saline with Tween-80
[15] = dose: 200.0 mg/kg/injection, schedule: Q04DX003 (ip), vehicle: saline with Tween-80
[16] = dose: 400.0 mg/kg/injection, schedule: Q04DX003 (ip), vehicle: saline with Tween-80

Measured: T/C

CC(=O)OCC1OC(n2cnc3c(C)nc(F)nc32)C(OC(C)=O)C1OC(C)=O (stereo not drawn)
inactive: dose: 50.0 mg/kg/injection, schedule: Q01DX001 (ip), vehicle: other 105 % of control | dose: 100.0 mg/kg/injection, schedule: Q01DX001 (ip), vehicle: other 113 % of control | dose: 200.0 mg/kg/injection, schedule: Q01DX001 (ip), vehicle: other 103 % of control | dose: 400.0 mg/kg/injection, schedule: Q01DX001 (ip), vehicle: other 108 % of control

CCOC(=O)Nc1cc(Cl)ccc1C
inactive: dose: 100.0 mg/kg/injection, schedule: Q01DX001 (ip), vehicle: Klucel (hydroxypropylcellulose) (HPC) 101 % of control | [1] 102 % of control | dose: 100.0 mg/kg/injection, schedule: Q04DX002 (ip), vehicle: Klucel (hydroxypropylcellulose) (HPC) 97 % of control and 100 % of control | dose: 100.0 mg/kg/injection, schedule: Q04DX003 (ip), vehicle: Klucel (hydroxypropylcellulose) (HPC) 103 % of control | dose: 200.0 mg/kg/injection, schedule: Q01DX001 (ip), vehicle: Klucel (hydroxypropylcellulose) (HPC) 102 % of control | [2] 102 % of control | dose: 200.0 mg/kg/injection, schedule: Q04DX002 (ip), vehicle: Klucel (hydroxypropylcellulose) (HPC) 100 % of control and 104 % of control | dose: 200.0 mg/kg/injection, schedule: Q04DX003 (ip), vehicle: Klucel (hydroxypropylcellulose) (HPC) 107 % of control | dose: 400.0 mg/kg/injection, schedule: Q01DX001 (ip), vehicle: Klucel (hydroxypropylcellulose) (HPC) 111 % of control | dose: 400.0 mg/kg/injection, schedule: Q01DX009 (ip), vehicle: Klucel (hydroxypropylcellulose) (HPC) 96 % of control | dose: 400.0 mg/kg/injection, schedule: Q04DX002 (ip), vehicle: Klucel (hydroxypropylcellulose) (HPC) 103 % of control and 110 % of control | dose: 400.0 mg/kg/injection, schedule: Q04DX003 (ip), vehicle: Klucel (hydroxypropylcellulose) (HPC) 96 % of control

CCN(CC)CCCC(C)Nc1cc(N)nc2nc(-c3ccccc3)c(-c3ccccc3)nc12 (stereo not drawn)
inactive: dose: 9.5 mg/kg/injection, schedule: Q01DX001 (ip), vehicle: other 89 % of control | dose: 38.0 mg/kg/injection, schedule: Q01DX001 (ip), vehicle: other 87 % of control | [3] 96 % of control

CC1(C)CCS1(=O)=O
inactive: [4] 100 % of control | [5] 100 % of control | [6] 100 % of control

O=C(O)C1=CC(O)C(O)C(O)C1 (stereo not drawn)
inactive: dose: 100.0 mg/kg/injection, schedule: Q01DX009 (ip), vehicle: saline sonified 103 % of control | [7] 104 % of control | [8] 92 % of control | dose: 200.0 mg/kg/injection, schedule: Q01DX009 (ip), vehicle: saline sonified 86 % of control | dose: 200.0 mg/kg/injection, schedule: Q01DX009 (ip), vehicle: saline 107 % of control | dose: 200.0 mg/kg/injection, schedule: Q04DX003 (ip), vehicle: saline 100 % of control | dose: 400.0 mg/kg/injection, schedule: Q01DX009 (ip), vehicle: saline 106 % of control | dose: 400.0 mg/kg/injection, schedule: Q04DX003 (ip), vehicle: saline 97 % of control

CSc1nn2c(SC)nnc2s1
inactive: dose: 50.0 mg/kg/injection, schedule: Q01DX001 (ip), vehicle: carboxymethylcellulose (CMC) 104 % of control | [9] 101 % of control | [10] 120 % of control

CSc1ccc(SCCOC(=O)Nc2ccc(Cl)cc2Cl)cc1
inactive: [11] 91 % of control | [12] 93 % of control | [13] 98 % of control

C/C=C/C=C\COC(=O)C(C)Cl (stereo not drawn)
inactive: [4] 108 % of control | [5] 103 % of control | [6] 108 % of control

COC(C#N)(Cc1ccccc1)Cc1ccccc1
inactive: [3] 92 % of control | dose: 150.0 mg/kg/injection, schedule: Q01DX001 (ip), vehicle: other 95 % of control

C=C[C+](CCCC)C(=O)[O-]
inactive: dose: 25.0 mg/kg/injection, schedule: Q01DX009 (ip), vehicle: saline 95 % of control | dose: 50.0 mg/kg/injection, schedule: Q01DX009 (ip), vehicle: saline 92 % of control | dose: 50.0 mg/kg/injection, schedule: Q04DX003 (ip), vehicle: saline 98 % of control | dose: 100.0 mg/kg/injection, schedule: Q01DX001 (ip), vehicle: acetone 96 % of control | [7] 87 % of control | [8] 93 % of control | dose: 150.0 mg/kg/injection, schedule: Q01DX009 (ip), vehicle: saline 101 % of control | dose: 200.0 mg/kg/injection, schedule: Q01DX001 (ip), vehicle: acetone 95 % of control | dose: 225.0 mg/kg/injection, schedule: Q01DX009 (ip), vehicle: saline 98 % of control

CN1Cc2ccccc2-c2ccccc2C1
inactive: dose: 75.0 mg/kg/injection, schedule: Q01DX001 (ip), vehicle: saline 101 % of control

CC(=O)Nc1c(Br)cc2c(c1Br)Cc1cc(Br)ccc1-2
inactive: [9] 111 % of control | [10] 97 % of control | dose: 400.0 mg/kg/injection, schedule: Q01DX001 (ip), vehicle: carboxymethylcellulose (CMC) 108 % of control

Cc1cccc(NC(=O)CSc2ccc(Cl)cc2)c1
inactive: dose: 100.0 mg/kg/injection, schedule: Q04DX002 (sc), vehicle: olive oil, sesame oil, peanut oil 100 % of control | dose: 200.0 mg/kg/injection, schedule: Q04DX002 (sc), vehicle: olive oil, sesame oil, peanut oil 106 % of control | dose: 400.0 mg/kg/injection, schedule: Q04DX002 (sc), vehicle: olive oil, sesame oil, peanut oil 89 % of control

O=C1C=CC(=NCl)C=C1
inactive: dose: 1.25 mg/kg/injection, schedule: Q01DX015 (ip), vehicle: carboxymethylcellulose (CMC) 92 % of control | dose: 2.5 mg/kg/injection, schedule: Q01DX015 (ip), vehicle: carboxymethylcellulose (CMC) 91 % of control | dose: 5.0 mg/kg/injection, schedule: Q01DX001 (ip), vehicle: carboxymethylcellulose (CMC) 114 % of control | dose: 5.0 mg/kg/injection, schedule: Q01DX015 (ip), vehicle: carboxymethylcellulose (CMC) 95 % of control | dose: 10.0 mg/kg/injection, schedule: Q01DX001 (ip), vehicle: carboxymethylcellulose (CMC) 111 % of control

CC(=O)Nc1ccc2scnc2c1
inactive: [14] 112 % of control | [15] 112 % of control | [16] 105 % of control

COc1ccc(OC)c(NC(=O)Nc2ccc(O)cc2)c1
inactive: [14] 98 % of control | [15] 98 % of control | [16] 93 % of control

O=C(CNC(=O)Nc1ccc(Cl)c(Cl)c1)N/N=C/c1ccccc1F
inactive: [11] 93 % of control | [12] 89 % of control | [13] 89 % of control

O=C(C[N+]12CN3CN(CN(C3)C1)C2)c1ccc(Br)cc1
inactive: dose: 100.0 mg/kg/injection, schedule: Q01DX005 (ip), vehicle: Klucel (hydroxypropylcellulose) (HPC) 103 % of control | [1] 111 % of control | dose: 200.0 mg/kg/injection, schedule: Q01DX005 (ip), vehicle: Klucel (hydroxypropylcellulose) (HPC) 109 % of control | [2] 107 % of control | dose: 400.0 mg/kg/injection, schedule: Q01DX005 (ip), vehicle: Klucel (hydroxypropylcellulose) (HPC) 111 % of control

COC(=O)C(C)NC(=O)C(C)NC(=O)c1cnc2ccccc2n1 (stereo not drawn)
inactive: [9] 89 % of control | [10] 93 % of control

COc1cccc(C(N)C(=O)O)c1 (stereo not drawn)
inactive: dose: 50.0 mg/kg/injection, schedule: Q01DX001 (ip), vehicle: saline 94 % of control | dose: 100.0 mg/kg/injection, schedule: Q01DX001 (ip), vehicle: saline 100 % of control | dose: 200.0 mg/kg/injection, schedule: Q01DX001 (ip), vehicle: saline 105 % of control | dose: 400.0 mg/kg/injection, schedule: Q01DX001 (ip), vehicle: saline 97 % of control

C=CCn1c(=S)[nH]c2ccccc2c1=O
inactive: [14] 93 % of control | [13] 91 % of control | [15] 94 % of control | dose: 400.0 mg/kg/injection, schedule: Q01DX009 (ip), vehicle: saline with Tween-80 89 % of control | [16] 96 % of control

CCOC(=O)C(CBr)CBr
inactive: [4] 91 % of control | [5] 88 % of control | [6] 122 % of control

COC1CCCCC1I (stereo not drawn)
inactive: [11] 95 % of control | [12] 95 % of control | [13] 93 % of control
